A word on the IC50: it is the concentration at which inhibition is half-maximal. For orientation: melting point means the temperature, or range, at which the solid turns liquid.

This is an account of results in US6352989B1, “Nitrogenous heterocyclic derivatives and medicine thereof” (Eisai Co., Ltd., priority 1998, dated 2002).

SMILES strings stand for the structures.

One data set addresses PDE4D (Homo sapiens, UniProt Q08499). In words: Inhibitory action on PDE4 (homogenate of BHK cells expressing cloned human PDE4D, [3H]-cAMP hydrolysis). It is filed as biochemical. The following applies: average in triplicate measurements; 1 μM [3H]-cAMP substrate; read-out: PDE4 Inhibition IC50. On the procedure: Inhibitory Action on PDE4: PDE4D was cloned from human placental mRNA by PCR techniques, and cDNA after an alternative spliced site (Mol. Cell. Biol., 13, 6558, 1993) was expressed in BHK cells. Two clones of BHK cells expressing PDE4 activity which was 100 or more times as high as endogenous PDE4 activity were obtained, and one of the clones was cultured in a large amount, and its homogenate was used as an enzyme source of PDE4.
50 mM Tris-HCl (pH 8.0), 0.1 mM EGTA, 0.1 mM MgCl2, 1 μM [^3H]-cGMP (100,000 dpm/tube) or 1 μM [^3H]-cAMP (100,000 dpm/tube) was added to the above homogenate, and 0.2 ml of the mixture was incubated at 30° C. for 10 to 20 minutes in the presence or absence of a test compound. The enzyme reaction was stopped by incubating the mixture at 95° C. for 1.5 minutes, and after cooling on ice, 50 μl nucleotidase (10 units/ml) was added thereto and incubated at 30° C. for 10 minutes. 550 μl of AG1-X2 resin slurry (H2O:resin=2:1) was added to the reaction mixture, then left at 4° C. for 10 minutes and centrifuged (10,000 rpm, 2.5 minutes, 4° C.), and 450 μl of the supernatant was measured for radioactivity.
The activity was compared in terms of IC50 (concentration of the compound at which 50% of the enzyme activity is inhibited) IC50 was determined by plotting of the concentration of cAMP as the substrate and the concentration of the compound on logarithmic graph paper. The results shown in Table 1 are the average in triplicate measurements. The test compound was first dissolved in DMSO and then diluted with the above-mentioned buffer for use.

A further data set has as its system TNFα production. Kind of data set: Inhibitory action on production of TNFα (LPS-stimulated human peripheral blood monocyte fraction, ELISA). It is filed as cell-based. The following applies: LPS-stimulated human peripheral blood monocytes, incubation 18 to 24 hours, read-out: TNF^α Inhibition IC50. On the procedure: Inhibitory Action on Production of TNF: Human peripheral blood was collected in […] and centrifuged (1000 rpm, 10 minutes, at room temperature) to remove platelet rich plasma, and then the blood sample was mixed with Hank's balanced salt solution (HBSS) (with an equal volume to the removed plasma) containing penicillin (100 units/ml) and streptomycin (100 μg/ml) (referred to hereinafter as “p, s”). Ficoll-paque (Pharmacia) with an volume of 3/5 relative to the sample mixture was layered on the lower layer and centrifuged at 1500 rpm for 30 minutes at room temperature, and the monocyte nucleus fraction was collected. The resulting monocyte nucleus fraction was washed twice with p, s-containing HBSS and prepared as a cell float at a cell density of 2-4×10^6 cells/ml in p, s-containing RPMI1640 (containing 10% FCS). 400 μl of the prepared cell float was added to a 48-wells culture plate, and 50 μl LPS (100 ng/ml of saline) and 50 μl of each of compound solutions prepared at various concentrations were added to each well, followed by incubation at 37° C. in a 5% CO2 mixed air. After incubation for 18 to 24 hours, the incubated buffer was separated, and TNFα thus released from the cells was measured by an ELISA kit (Amasham).
The inhibitory action of the compound on production of TNFα was determined in terms of IC50 by plotting the concentrations of the compound and the amount of produced TNFα (%relative to the control) on semilogarithmic graph paper. The control (100%) for the amount of TNFα produced was obtained by subtracting the amount of TNFα produced in the (basal) group where neither LPS nor the compound was added, from the amount of TNFα produced in the (control) group where the compound was not added.
After the compound was dissolved at a concentration of […] in DMSO solution containing the compound at a concentration which was 1000 times as high as the final concentration, and then the solution was diluted with RPMI1640 containing 10% FCS and p,s, to prepare a solution containing the compound at a concentration which was 10 times as high as the final concentration. In place of the compound solution, RPMI1640 (1% DMSO, 10% FCS) containing p, s was added to the control group basal group. In place of the LPS solution, physiological saline was added to the basal group.
Background: In an ELISA, binding on a coated surface is turned into a signal by an enzyme label.

In another data set the test system is ZDP rat. In words: Blood sugar-depressing action (ZDP rat). It is filed as in vivo. To be noted: for Blood sugar level, Before the administration: baseline before the administration of the test compound; for Blood sugar level, After the continuous administration for 1 week / Glucose level relative to that (=100%) before the administration, after the continuous administration for 1 week: oral, once every day for 1 week; for Blood sugar level, After the continuous administration for 1 week: 4 hours fast, tail vein blood; for Glucose level relative to that (=100%) before the administration, after the continuous administration for 1 week: value in parentheses. On the procedure:
Blood Sugar-Depressing Action (ZDP rat): A test compound was suspended in 0.5% MC, and the suspension was orally administered to an animal once every day for 1 week. After the administration, the rat was allowed to fast for 4 hours, and blood was collected from the tail vein, added immediately to 0.6 M HClO4 (0.6 M HClO4=1:9), and centrifuged to give a supernatant which was then measured for glucose level by Glocose CII Test Wako Kit (Wako Pure Chemical Industries, Ltd., JP). In the table, values in the parentheses under the blood sugar level (mg/dl) indicate glucose levels relative to those (=100%) before the administration of the test compound.

PDE4D, sequence (Q08499 303-809 limits assumed): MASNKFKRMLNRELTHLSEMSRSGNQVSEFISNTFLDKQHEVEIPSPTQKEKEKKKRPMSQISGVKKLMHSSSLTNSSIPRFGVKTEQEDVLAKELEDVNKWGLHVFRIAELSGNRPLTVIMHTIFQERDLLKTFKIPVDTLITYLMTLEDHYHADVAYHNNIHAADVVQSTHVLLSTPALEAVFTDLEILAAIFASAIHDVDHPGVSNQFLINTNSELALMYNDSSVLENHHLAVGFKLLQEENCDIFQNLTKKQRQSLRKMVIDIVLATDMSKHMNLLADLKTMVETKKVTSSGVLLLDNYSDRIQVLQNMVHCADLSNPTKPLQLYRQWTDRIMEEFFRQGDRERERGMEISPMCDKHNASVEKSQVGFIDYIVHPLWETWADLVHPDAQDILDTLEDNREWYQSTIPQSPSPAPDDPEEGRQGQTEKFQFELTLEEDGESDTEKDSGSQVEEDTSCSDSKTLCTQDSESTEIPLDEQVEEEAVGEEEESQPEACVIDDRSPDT

The compound `CNc1nc(-c2cccc(NC(=O)c3ccncc3)c2)c2cc(OC)c(OC)cc2n1` [Example 2, 6,7-Dimethoxy-2-methylamino-4-[3-(4-pyridinecarbonylamino)phenyl]quinazoline] returned a melting point of 228 to 230 °C. On PDE4D, the IC50 worked out at 8.5 nM. Also, the IC50 with TNFα production was 4.7 nM.
For the compound `CNc1nc(-c2cccc(NC(=O)c3ccc(OC)c(OC)c3)c2)c2cc(OC)c(OC)cc2n1` [Example 14, 6,7-Dimethoxy-4-[3-(3,4-dimethoxybenzoylamino)phenyl]-2-methylaminoquinazoline], the melting point fell in the range of 128 to 130 °C. Besides, the half-inhibitory concentration (IC50) at PDE4D amounted to 4 nM. For the same compound, the IC50 in the data set with TNFα production was 1.6 nM.
Consider `CNc1nc(-c2cccc(NC(=O)c3ccc(OC)c(Cl)c3)c2)c2cc(OC)c(OC)cc2n1` [Example 18, 4-[3-(3-Chloro-4-methoxybenzoylamino)phenyl]-6,7-dimethoxy-2-methylaminoquinazoline], for which the melting point lay within 130 to 132 °C. The IC50 at PDE4D is 1.4 nM. Besides, the IC50 in the data set on TNFα production stood at 3.3 nM.
`CNc1ccc(C(=O)Nc2cccc(-c3nc(NC)nc4cc(OC)c(OC)cc34)c2)cn1` [Example 32, 6,7-Dimethoxy-2-methylamino-4-[3-(6-methylaminonicotinoylamino)phenyl]quinazoline] returned a melting point of 193 to 195 °C. On PDE4D, the 50% inhibitory concentration (IC50) was 2.6 nM. Moreover, in the data set on TNFα production, the IC50 is 2.3 nM. Further, in the data set with ZDP rat, the “Blood sugar level, Before the administration” value was determined as 478.5 ± 7.3 mg/dL; the “Blood sugar level, After the continuous administration for 1 week” value came to 349.3 ± 44.3 mg/dL; the “Glucose level relative to that (=100%) before the administration, after the continuous administration for 1 week” value is recorded as “(73.0) %”.
For the compound `CNc1nc(-c2cccc(-c3cnc4ccccc4c3)c2)c2cc(OC)c(OC)cc2n1` [Example 49, 6,7-Dimethoxy-2-methylamino-4-[3-(3-quinolyl)phenyl]quinazoline], the melting point lay within 218 to 220 °C. The IC50 on PDE4D was 1.1 nM. In addition, the IC50 in the data set with TNFα production was determined as 1.7 nM.
For `CNc1nc(-c2cccc(-c3cccc(-c4ccccc4)c3)c2)c2cc(OC)c(OC)cc2n1` [Example 56, 6,7-Dimethoxy-2-methylamino-4-(3′-phenyl-3-biphenylyl)quinazoline], the melting point was 193 to 195 °C. Further, on PDE4D, the IC50 was determined as 1.2 nM.
In the same order, the values of `CNc1nc(-c2cccc(-c3cncc(SC)c3)c2)c2cc(OC)c(OC)cc2n1` [Example 58, 6,7-Dimethoxy-2-methylamino-4-[3-(5-methylthio-3-pyridyl)phenyl]quinazoline] are 184 to 186 °C and 2.8 nM.
In the same order, the values of `CCOc1cc2nc(NC)nc(-c3cccc(-c4cnc5ccccc5c4)c3)c2cc1OCC` [Example 60, 6,7-Diethoxy-2-methylamino-4-[3-(3-quinolyl)phenyl]quinazoline] are 157 to 159 °C and 0.22 nM.
`CCOc1cc2nc(NC)nc(-c3cccc(-c4cncc(SC)c4)c3)c2cc1OCC` [Example 61, 6,7-Diethoxy-2-methylamino-4-[3-(methylthio-3-pyridyl)phenyl]quinazoline] showed a melting point of 105 to 107 °C. For the same compound, the IC50 on PDE4D worked out at 0.6 nM.
Compound `CCOc1cc2nc(NC)nc(-c3cccc(-c4cncc([S+](C)[O-])c4)c3)c2cc1OCC` (stereo not shown) [Example 62] registered a melting point of 188 to 190 °C. Also, at PDE4D, the IC50 was 1.9 nM. Also, in the data set on ZDP rat, the “Blood sugar level, Before the administration” value is 478.6 ± 24.0 mg/dL; the “Blood sugar level, After the continuous administration for 1 week” value was 369.1 ± 37.3 mg/dL; the “Glucose level relative to that (=100%) before the administration, after the continuous administration for 1 week” value is recorded as “(77.1) %”.
In turn, `CNc1nc(-c2cccc(-c3cncc(-c4ccccc4)c3)c2)c2cc(OC)c(OC)cc2n1` [Example 63, 6,7-Dimethoxy-2-methylamino-4-[3-(5-phenyl-3-pyridyl)phenyl]quinazoline] came in with a melting point of 200 to 202 °C. Also, on PDE4D, the IC50 worked out at 0.6 nM.
In the same order, the values of `CNc1nc(-c2cccc(-c3cnc4c(C)cccc4c3)c2)c2cc(OC)c(OC)cc2n1` [Example 64, 6,7-Dimethoxy-4-[3-(8-methyl-3-quinolyl)phenyl]-2-methylaminoquinazoline] are 188 to 190 °C and 0.19 nM.
Compound `CNc1nc(-c2cccc(C#Cc3ccccc3)c2)c2cc(OC)c(OC)cc2n1` [Example 65, 6,7-Dimethoxy-2-methylamino-4-[3-(2-phenylethynyl)phenyl]quinazoline] displayed a melting point of 102 to 104 °C. For the same compound, on PDE4D, the IC50 came to 2.5 nM.
